System: 997726-040-R-J2-PDC tumor spheroids, viability
Assay: Anticancer human tumor 997726-040-R-J2-PDC patient-derived squamous cell lung carcinoma cell line growth inhibition [PI3K]
Settings: spheroids with HUVEC and MSC; for viability, T/C: stronger effect = lower value
Procedure, shortened: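 Tumor cells grown as multi-cell spheroids with HUVEC endothelial cells and MSC fibroblast-like stroma were treated with targeted agents combined with inavolisib, alpelisib, duvelisib or copanlisib. Doses fell in half-log steps from near clinical Cmax, else from 10 microM. Viability was measured.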

[1] = curve of first compound, second compound 0.0316 µM
[2] = curve of first compound, second compound 0.1 µM
[3] = curve of first compound, second compound 0.316 µM
[4] = curve of first compound, second compound 1 µM
[5] = curve of first compound, second compound 3.16 µM
[6] = curve of first compound, second compound 10 µM
[7] = second compound 0.0316 µM, first compound 0.0316 µM
[8] = second compound 0.0316 µM, first compound 0.1 µM
[9] = second compound 0.1 µM, first compound 0.0316 µM
[10] = second compound 0.1 µM, first compound 0.1 µM
[11] = second compound 0.316 µM, first compound 0.0316 µM
[12] = second compound 0.316 µM, first compound 0.1 µM
[13] = second compound 1 µM, first compound 0.0316 µM
[14] = second compound 1 µM, first compound 0.1 µM
[15] = second compound 3.16 µM, first compound 0.0316 µM
[16] = second compound 3.16 µM, first compound 0.1 µM
[17] = second compound 10 µM, first compound 0.0316 µM
[18] = second compound 10 µM, first compound 0.1 µM
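Note: spheroids exposed to compounds for seven days before readout.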

For `Cn1ncnc1[C@H]1c2n[nH]c(=O)c3cc(F)cc(c23)N[C@@H]1c1ccc(F)cc1` + Cc1nc(NC(=O)N2CCCC2C(N)=O)sc1-c1ccnc(C(C)(C)C(F)(F)F)c1, which IC50 [1] is on record?
Its IC50 is greater than 0.1 µM.

What about the IC50 [2] of the same compound?
Its IC50 is greater than 0.1 µM.

What about the IC50 [3] of the same compound?
The IC50 was greater than 0.1 µM.

And the IC50 [4]?
The IC50 was less than 0.000316 µM.

What about the IC50 [5] of the same compound?
Its IC50 is less than 0.000316 µM.

What about the IC50 [6] of the same compound?
The IC50 was less than 0.000316 µM.

And the viability, T/C (second compound 0.0316 µM, first compound 0.000316 µM)?
Its viability, T/C is 83.8%.

What about the viability, T/C (second compound 0.0316 µM, first compound 0.001 µM) of the same compound?
The viability, T/C was 81.5%.

And the viability, T/C (second compound 0.0316 µM, first compound 0.00316 µM)?
Its viability, T/C is 94.3%.

What about the viability, T/C (second compound 0.0316 µM, first compound 0.01 µM) of the same compound?
The viability, T/C was 84.9%.

What about the viability, T/C [7] of the same compound?
The viability, T/C was 90.7%.

What about the viability, T/C [8] of the same compound?
Its viability, T/C is 90.4%.

What about the viability, T/C (second compound 0.1 µM, first compound 0.000316 µM) of the same compound?
The viability, T/C was 75.5%.

And the viability, T/C (second compound 0.1 µM, first compound 0.001 µM)?
Its viability, T/C is 78.6%.

And the viability, T/C (second compound 0.1 µM, first compound 0.00316 µM)?
Its viability, T/C is 78.5%.

What about the viability, T/C (second compound 0.1 µM, first compound 0.01 µM) of the same compound?
The viability, T/C was 80.2%.

What about the viability, T/C [9] of the same compound?
The viability, T/C was 80.8%.

What about the viability, T/C [10] of the same compound?
Its viability, T/C is 78.2%.

What about the viability, T/C (second compound 0.316 µM, first compound 0.000316 µM) of the same compound?
The viability, T/C was 54.5%.

What about the viability, T/C (second compound 0.316 µM, first compound 0.001 µM) of the same compound?
Its viability, T/C is 59.4%.

What about the viability, T/C (second compound 0.316 µM, first compound 0.00316 µM) of the same compound?
Its viability, T/C is 57.2%.

What about the viability, T/C (second compound 0.316 µM, first compound 0.01 µM) of the same compound?
Its viability, T/C is 57.2%.

What about the viability, T/C [11] of the same compound?
Its viability, T/C is 58.4%.

And the viability, T/C [12]?
Its viability, T/C is 58%.

And the viability, T/C (second compound 1 µM, first compound 0.000316 µM)?
The viability, T/C was 46.2%.

What about the viability, T/C (second compound 1 µM, first compound 0.001 µM) of the same compound?
Its viability, T/C is 43.4%.

What about the viability, T/C (second compound 1 µM, first compound 0.00316 µM) of the same compound?
The viability, T/C was 40.3%.

And the viability, T/C (second compound 1 µM, first compound 0.01 µM)?
Its viability, T/C is 41.5%.

And the viability, T/C [13]?
Its viability, T/C is 44.9%.

And the viability, T/C [14]?
The viability, T/C was 45.1%.

What about the viability, T/C (second compound 3.16 µM, first compound 0.000316 µM) of the same compound?
Its viability, T/C is 33%.

And the viability, T/C (second compound 3.16 µM, first compound 0.001 µM)?
Its viability, T/C is 29.4%.

And the viability, T/C (second compound 3.16 µM, first compound 0.00316 µM)?
Its viability, T/C is 30%.

And the viability, T/C (second compound 3.16 µM, first compound 0.01 µM)?
The viability, T/C was 31.4%.

And the viability, T/C [15]?
The viability, T/C was 30.4%.

And the viability, T/C [16]?
The viability, T/C was 29%.

What about the viability, T/C (second compound 10 µM, first compound 0.000316 µM) of the same compound?
Its viability, T/C is 17.2%.

And the viability, T/C (second compound 10 µM, first compound 0.001 µM)?
Its viability, T/C is 18%.

And the viability, T/C (second compound 10 µM, first compound 0.00316 µM)?
The viability, T/C was 16.3%.

What about the viability, T/C (second compound 10 µM, first compound 0.01 µM) of the same compound?
Its viability, T/C is 13.6%.

And the viability, T/C [17]?
The viability, T/C was 18.8%.

What about the viability, T/C [18] of the same compound?
The viability, T/C was 12.8%.

What does the source list for `CCN1CCN(Cc2ccc(Nc3ncc(F)c(-c4cc(F)c5nc(C)n(C(C)C)c5c4)n3)nc2)CC1`?
viability, T/C (compound 0.00316 µM): 94% [middle of 4 runs]; viability, T/C (compound 0.01 µM): 88.4% [middle of 4 runs]; viability, T/C (compound 0.0316 µM): 74.3% [middle of 4 runs]; viability, T/C (compound 0.1 µM): 64.8% [middle of 4 runs]; viability, T/C (compound 0.316 µM): 68.5% [middle of 4 runs]; IC50 (curve of compound): > 1 µM

Which results are given for `CC(Cn1ccc(-c2ccc(C#N)c(Cl)c2)n1)NC(=O)c1cc(C(C)O)[nH]n1` (stereo not given) + Cc1nc(NC(=O)N2CCCC2C(N)=O)sc1-c1ccnc(C(C)(C)C(F)(F)F)c1?
IC50 [1]: > 10 µM; IC50 [2]: > 10 µM; IC50 [3]: > 10 µM; IC50 [4]: < 0.0316 µM; IC50 [5]: < 0.0316 µM; IC50 [6]: < 0.0316 µM; viability, T/C [7]: 88.7%; viability, T/C [8]: 92.7%; viability, T/C (second compound 0.0316 µM, first compound 0.316 µM): 90.5%; viability, T/C (second compound 0.0316 µM, first compound 1 µM): 95.7%; viability, T/C (second compound 0.0316 µM, first compound 3.16 µM): 86.2%; viability, T/C (second compound 0.0316 µM, first compound 10 µM): 86%; viability, T/C [9]: 76%; viability, T/C [10]: 74.3%; viability, T/C (second compound 0.1 µM, first compound 0.316 µM): 80.2%; viability, T/C (second compound 0.1 µM, first compound 1 µM): 74.3%; viability, T/C (second compound 0.1 µM, first compound 3.16 µM): 78.9%; viability, T/C (second compound 0.1 µM, first compound 10 µM): 72.1%; viability, T/C [11]: 62.5%; viability, T/C [12]: 53.5%; viability, T/C (second compound 0.316 µM, first compound 0.316 µM): 59.5%; viability, T/C (second compound 0.316 µM, first compound 1 µM): 57.5%; viability, T/C (second compound 0.316 µM, first compound 3.16 µM): 58.9%; viability, T/C (second compound 0.316 µM, first compound 10 µM): 54%; viability, T/C [13]: 45%; viability, T/C [14]: 44.7%; viability, T/C (second compound 1 µM, first compound 0.316 µM): 47.3%; viability, T/C (second compound 1 µM, first compound 1 µM): 39.8%; viability, T/C (second compound 1 µM, first compound 3.16 µM): 43.1%; viability, T/C (second compound 1 µM, first compound 10 µM): 41.8%; viability, T/C [15]: 29.4%; viability, T/C [16]: 27.1%; viability, T/C (second compound 3.16 µM, first compound 0.316 µM): 32%; viability, T/C (second compound 3.16 µM, first compound 1 µM): 33.4%; viability, T/C (second compound 3.16 µM, first compound 3.16 µM): 30.6%; viability, T/C (second compound 3.16 µM, first compound 10 µM): 26.7%; viability, T/C [17]: 15.4%; viability, T/C [18]: 14.6%; viability, T/C (second compound 10 µM, first compound 0.316 µM): 16.2%; viability, T/C (second compound 10 µM, first compound 1 µM): 15.1%; viability, T/C (second compound 10 µM, first compound 3.16 µM): 14.4%; viability, T/C (second compound 10 µM, first compound 10 µM): 9.85%

From PubChem BioAssay AID1963964 (Molecular Pharmacology Branch, DTP, NCI, 2024)
